Laboratory results published in patent US20240181000A1, “LGG-DERIVED PEPTIDES AND METHODS OF USE THEREOF” (Ohio State Innovation Foundation, priority 2021, published 2024).
No end group written: not given here.

System: APEC O78
Assay: Efficacy in wax moth larvae model
Type: in vivo, Galleria mellonella
Description: Efficacy and toxicity of peptides in wax moth (Galleria mellonella) larvae model: To measure the efficacy and toxicity of peptides (P1, P2, and P3) in vivo, wax moth larvae model was used as described previously. Wax moth larvae were obtained from Vanderhorst Wholesale, Inc. (Saint Marys, OH) and were kept at 37° C. overnight before use. Healthy larvae (creamy color with no blackening) were selected and kept in sterile petri dishes before inoculation. For toxicity evaluation, larvae (n=10/group) were injected with 25.5 mM of peptides (dissolved in sterile water containing DMSO) through last left pro-leg using PB600-1 repeating dispenser (Hamilton) attached to insulin syringe (ReliOn; 31 gauze, 8 mm needle length). The injected larvae were incubated for 72 h at 37° C., and mortality was recorded every 12 h.
For efficacy evaluation, larvae (n=15/group) were pretreated (as above) and infected with rifampicin resistant (Rif) APEC O78 (2.3×10^4 CFU/larva) through last right pro-leg within 30 mins of treatment. The larvae were incubated at 37° C. for 72 h and mortality was recorded as above. […] The statistical significance (P<0.05) of treatments on survival of larvae and APEC load inside larvae was calculated using log-rank test and one-way ANOVA followed by Tukey's post-hoc test, respectively.

PDENK [Peptide P2, PDENK]
APEC load in the larvae (72 h post-infection, untreated 7.4±3.1 log CFU/larva): no APEC was isolated
Larval mortality (pretreated with 25.5 mM, 72 h, untreated 73.34%): 26.67%
